From US4419358A, “Isethionic acid salt of 9-cyclohexyl-2-propoxy-9H-purine-6-amine and compositions containing an effective bronchodilating concentration of it” (Mead Johnson & Company, priority 1981, dated 1983)
Like-named read-outs stand apart in the source and are kept apart here.

Legend:
Format in all cases: physicochemical
[1] = Dissociation of salts/solvates in water
Description: (§1) Preparation of the isethionate salt of MJ 13156 is carried out by treating an equivalent of base in ethyl acetate with 2 equivalents of isethionic acid in ethanol-ethyl acetate solution. Chilling the mixture yields the salt which is collected by filtration. The salt can similarly be prepared by using more concentration solutions of both the acid and the base in ethanol.

[2] = Water solubility of salts of MJ 13156 (Table 1, Method A or B); conditions: for Solubility: room temperature (about 25° C.)
Description: More conventional pharmaceutically acceptable acid addition salts of MJ 13156 are not well suited for the present use due to a limited solubility and, in some cases, lack of stability.
^1 Solubility data obtained using one of two methods:
Solubilities of isolated salts determined in standard manner by adding
H2 O to weighed salt samples and directly obtaining solubility data.
Solubilities of salts prepared in situ determined by adding a
moleequivalent of each acid to a 140 mg sample of MJ 13156 and then
diluting with H2 O in increments to 2.5 mg/mL. A second
moleequivalent of acid was added to each sample and allowed to stand
overnight. The precipitates were collected, dried, and weighed to obtain

[3] = Basicity (ability of MJ 13156 to form salts with weak acids); conditions: gluconic, lactobionic, acetic, and levulinic acids
Description: as §1

[4] = listed as methanesulfonate salt
[5] = Method A: H2O added to weighed samples of isolated salts
[6] = Method B: salts prepared in situ from 140 mg MJ 13156, second moleequivalent of acid added, overnight

SMILES | Solubility [2, 5] | Solubility [2, 6] | further results
CCCOc1nc(N)c2ncn(C3CCCCC3)c2n1 [methanesulfonic] | 8000 µg/mL |  | dissociation in water (in words) [1, 4]: dissociates moderately in water; water solubility (in words) [2, 4]: reasonable water solubility
CCCOc1nc(N)c2ncn(C3CCCCC3)c2n1 [sulfuric] |  | 800 µg/mL | 
CCCOc1nc(N)c2ncn(C3CCCCC3)c2n1 [hydrochloric] | 1400 µg/mL |  | 
CCCOc1nc(N)c2ncn(C3CCCCC3)c2n1 [acetic acid solvate] |  |  | dissociation in water (in words) [1]: dissociated in water to give MJ 13156 base
CCCOc1nc(N)c2ncn(C3CCCCC3)c2n1 [nitric] |  | 2400 µg/mL | 
CC(=O)CCC(=O)O [levulinic acid] |  |  | dissociation in water (in words) [1]: dissociated in water to give MJ 13156 base
CCCOc1nc(N)c2ncn(C3CCCCC3)c2n1 [MJ 13156, 9-cyclohexyl-2-propoxy-9H-purine-6-amine] |  |  | base strength (in words) [3]: too weak a base to form a salt with these acids
CCCOc1nc(N)c2ncn(C3CCCCC3)c2n1 [hydrobromic] |  | 1600 µg/mL | 
CCCOc1nc(N)c2ncn(C3CCCCC3)c2n1 [isethionic, 9-Cyclohexyl-2-propoxy-9H-purine-6-amine 2-Hydroxyethanesulfonate] | 100000 µg/mL |  | water solubility (in words) ([2]; listed as isethionate salt): clearly the most soluble of all those prepared
CCCOc1nc(N)c2ncn(C3CCCCC3)c2n1 [phosphoric] |  | 1300 µg/mL | 
